The text below walks through data of patent US7432260B2, “Pyrimidine compounds” (Cyclacel Limted, priority 2002, dated 2008).

Where two headings read alike, the source gives them in different places.

The subject of data set [1] is MCF-7. Put plainly: 72-h MTT cytotoxicity assay MCF-7. It counts as cell-based. The conditions noted are these: Homo sapiens, MCF7, 72 h; Table 5; Breast. The method, then: (§1) MTT cytotoxicity assay. […] Standard 72-h MTT (thiazolyl blue; 3-[4,5-dimethylthiazol-2-yl]-2,5-diphenyltetrazolium bromide) assays were performed (Haselsberger, K.; Peterson, D. C.; Thomas, D. G.; Darling, J. L. Anti Cancer Drugs 1996, 7, 331-8; Loveland, B. E.; Johns, T. G.; Mackay, I. R.; Vaillant, F.; Wang, Z. X.; Hertzog, P. J. Biochemistry International 1992, 27, 501-10). In short: cells were seeded into 96-well plates according to doubling time and incubated overnight at 37° C. Test compounds were made up in DMSO and a 1/3 dilution series prepared in 100 μL cell media, added to cells (in triplicates) and incubated for 72 ho at 37° C. MTT was made up as a stock of 5 mg/mL in cell media and filter-sterilised. Media was removed from cells followed by a wash with 200 μL PBS.
(§2) MTT solution was then added at 20 μL per well and incubated in the dark at 37° C. for 4 h. MTT solution was removed and cells again washed with 200 μL PBS. MTT dye was solubilised with 200 μL per well of DMSO with agitation.
(Formazan colour is commonly taken as a measure of viable cells.)

For data set [2], the target named is PKCα (protein kinase C α) (Homo sapiens, UniProt P17252). As to the kind of experiment: Kinase assay PKCα. It counts as biochemical. The conditions noted are these: Table 3 selectivity panel; read-out: Kinase specificity IC50 PKCα. The method, then:
Kinase assays. […] This was achieved by measurement of incorporation of radioactive phosphate from ATP into appropriate polypeptide substrates. Recombinant protein kinases and kinase complexes were produced or obtained commercially. Assays were performed using 96-well plates and appropriate assay buffers (typically 25 mM β-glycerophosphate, 20 mM MOPS, 5 mM EGTA, 1 mM DTT, 1 mM […], pH 7.4), into which were added 2-4 μg of active enzyme with appropriate substrates. The reactions were initiated by addition of Mg/ATP mix (15 mM MgCl2+100 μM ATP with 30-50 kBq per well of [γ-^32P]-ATP) and mixtures incubated as required at 30° C. Reactions were stopped on ice, followed by filtration through p81 filterplates or GF/C filterplates (Whatman Polyfiltronics, Kent, UK). After washing 3 times with 75 mM aq orthophosphoric acid, plates were dried, scintillant added and incorporated radioactivity measured in a scintillation counter (TopCount, Packard Instruments, Pangbourne, Berks, UK). Compounds for kinase assay were made-up as 10 mM stocks in DMSO and diluted into 10% DMSO inrassay buffer.

For data set [3], the system named is Messa-Dx5. As to the kind of experiment: 72-h MTT cytotoxicity assay Messa-Dx5. The following applies: Homo sapiens, MES-SA/Dx5, 72 h; Table 5; Uterine. It counts as cell-based. The method, then: as §1, §2
For data set [4], the system named is H1299. Put plainly: 72-h MTT cytotoxicity assay H1299. Type of data set: cell-based. The conditions noted are these: Homo sapiens, NCI-H1299, 72 h; Table 5; Lung. On the procedure:
as §1, §2

Data set [5] deals with HIV-1 (clinical paediatric strain RoJo or WeJo) in human PBMCs. Put plainly: Anti-HIV efficacy evaluation in fresh human PBMCs. It counts as cell-based. The following applies: for IC50 / IC90: Human immunodeficiency virus 1, PBMC, 168 h, seven days following infection; for IC50: concentration inhibiting virus replication by 50%; for IC90: concentration inhibiting virus replication by 90%. The method, then: (§3) Representative compounds of the present invention were tested for antiviral activity against HIV-1 in human peripheral blood mononuclear cells (PBMCs) using the clinical paediatric HIV strain RoJo or WeJo. PBMCs were cultured under conditions which promote cell survival and HIV replication. Antiviral activity was tested for from 6-9 log10 serial dilutions of a 100 μM compound stock solution in DMSO.
(§4) Fresh PBMCs, seronegative for HIV and HBV, were isolated from screened donors (Interstate Blood Bank, Inc. Memphis, Term.). Cells were pelleted/washed 2-3 times by low speed centrifugation and re-suspension in PBS to remove contaminating platelets. […] Banded PBMCs were gently aspirated from the resulting interface and subsequently washed with PBS by low speed centrifugation. After the final wash, cells were enumerated by trypan blue exclusion and re-suspended in RPMI 1640 supplemented with fetal bovine serum (FBS), and L-glutamine, Phytohemagglutinin (PHA-P, Sigma). The cells were allowed to incubate at 37° C. After incubation, PBMCs were centrifuged and resuspended in RPMI 1640 with FBS, L-glutamine, penicillin, streptomycin, gentamycin, and recombinant human IL-2 (R&D Systems, Inc). IL-2 is included in the culture medium to maintain the cell division initiated by the PHA mitogenic stimulation. PBMCs were maintained in this with bi-weekly medium changes until used in the assay protocol. Cells were kept in culture for a maximum of two weeks before being deemed too old for use in assays and discarded. Monocytes were depleted from the culture as the result of adherence to the tissue culture flask.
(§5) For the standard PBMC assay, PHA-P stimulated cells from at least two normal donors were pooled, diluted and plated in the interior wells of a 96-well round bottom microplate. Pooling of mononuclear cells from more than one donor was used to minimise the variability observed between individual donors, which results from quantitative and qualitative differences in HIV infection and overall response to the PHA and IL-2 of primary lymphocyte populations. Each plate contained virus/cell control wells (cells plus virus), experimental wells (drug plus cells plus virus) and compound control wells (drug plus media […], necessary for MTS monitoring of cytotoxicity). Since HIV-1 is not cytopathic to PBMCs, this allows the use of the same assay plate for both antiviral activity and cytotoxicity measurements. Test drug dilutions were prepared in microtiter tubes and each concentration was placed in appropriate wells using the standard format. A predetermined dilution of virus stock was placed in each test well (final MOI≅0.1). The PBMC cultures were maintained for seven days following infection at 37° C., 5% CO2. After this period, cell-free supernatant samples were collected for analysis of reverse transcriptase activity and/or HIV p24 content. Following removal of supernatant samples, compound cytotoxicity was measured by addition of MTS to the plates for determination of cell viability. Wells were also examined microscopically and any abnormalities were noted.
Reverse transcriptase activity assay: A microtiter plate-based reverse transcriptase (RT) reaction was utilised (Buckheit et al., AIDS Research and Human Retroviruses 7:295-302, 1991). Tritiated thymidine triphosphate (^3H-TTP, 80 Ci/mmol, NEN) was received in 1:1 dH2O:Ethanol at 1 mCi/mL. Poly rA:oligo dT template:primer (Pharmacia) was prepared as a stock solution, followed by aliquoting and storage at −20° C. The RT reaction buffer was prepared fresh on a daily basis. The final reaction mixture was prepared by combining ^3H-TTP, dH2O, poly rA:oligo dT stock and reaction buffer. This reaction mixture was placed in a round bottom microtiter plate and supernatant containing virus was added and mixed. The plate was incubated at 37° C. for 60 minutes. Following incubation, the reaction volume was spotted onto DE81 filter-mats (Wallac), in a sodium phosphate buffer or 2×SSC (Life Technologies). […]

Data set [6] in a line: Compound cytotoxicity in PBMCs (MTS). It counts as cell-based. The following applies: human, concentration decreasing cell viability by 50%, read-out: PBMC TC50. The method, then: as §3, §4, §5
Data set [7] addresses CDK2/cyclin A (Homo sapiens, UniProt P24941). Put plainly: Kinase assay CDK2/cyclin A. Type of data set: biochemical. In short, it runs like this:
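Radiometric kinase assays with recombinant enzymes (2-4 μg) and polypeptide substrates in β-glycerophosphate/MOPS/EGTA buffer, pH 7.4. Started with 15 mM MgCl2 + 100 μM ATP containing [γ-32P]-ATP, incubated at 30° C; incorporated 32P captured on filterplates and counted. Compounds diluted in 10% DMSO assay buffer.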

Where [8] appears, read: Table 2, read-out: Kinase Inhibition IC50 CDK2 cyclin A.
[9] abbreviates: Table 3 selectivity panel, read-out: Kinase specificity IC50 CDK2/A.

In the case of `Cc1nc(N)sc1-c1ccnc(Nc2ccc(N3CCOCC3)cc2)n1` [Compound 1, [4-(2-Amino-4-methyl-thiazol-5-yl)-pyrimidin-2-yl]-(4-morpholin-4-yl-phenyl)-amine], the IC50 in data set [1] is over 5000 nM; in data set [2], over 100000 nM; in data set [3] it was 200 nM; in data set [4], 900 nM; in data set [5] it was 1330 nM. Further, in data set [5], the “anti-viral effect in cell based assays” value is recorded as “particularly effective anti-viral agent”. Moreover, the 90% effect level in data set [5] (IC90) was put at 2640 nM. In addition, in data set [6], the CC50 at 7 days was determined as 6100 nM.
Consider `CNc1nc(C)c(-c2ccnc(Nc3ccc(N4CCOCC4)cc3)n2)s1` [Compound 3, [4-(2-N-Methylamino-4-methyl-thiazol-5-yl)-pyrimidin-2-yl]-(4-morpholinophenyl)-amine], for which the IC50 in data set [2] is over 100000 nM. Moreover, in data set [5], the IC50 is 297 nM and it took 679 nM to reach the 90% level (IC90). Moreover, the CC50 at 7 days in data set [6] was over 100000 nM.
Regarding `CCNc1nc(C)c(-c2ccnc(Nc3ccc(N4CCOCC4)cc3)n2)s1` [Compound 4, [4-(2-Ethylamino-4-methyl-thiazol-5-yl)-pyrimidin-2-yl]-(4-morpholin-4-yl-phenyl)-amine], in data set [5], the IC50 was 166 nM and the 90% effect level (IC90) was put at 295 nM. In data set [6], the CC50 at 7 days was 9400 nM.
`CNc1nc(C)c(-c2ccnc(Nc3ccc(N4CCN(Cc5ccccc5)CC4)cc3)n2)s1` [Compound 11, [4-(4-Benzyl-piperazin-1-yl)-phenyl]-[4-(4-methyl-2-methylamino-thiazol-5-yl)-pyrimidin-2-yl]-amine]: the IC50 was 1900 nM in data set [1]; over 100000 nM in data set [2]; 200 nM in data set [3]; 1100 nM in data set [4]; 2200 nM in data set [7] (setting [8]); 2200 nM in data set [7] (setting [9]).
`Cc1nc(NC(=O)[C@H](N)[C@@H](C)O)sc1-c1ccnc(Nc2cccc([N+](=O)[O-])c2)n1` [Compound 15, (2R,3R)-2-Amino-3-hydroxy-N-{4-methyl-5-[2-(3-nitro-phenylamino)-pyrimidin-4-yl]-thiazol-2-yl}-butyramide]: the IC50 is 900 nM in data set [1]; over 100000 nM in data set [2]; 400 nM in data set [3]; 1300 nM in data set [4]; 124 nM in data set [5]; 850 nM in data set [7] (setting [8]). The IC50 in data set [7] (setting [9]) is 400 nM. In addition, the IC90 – broadly, the concentration at which the effect reaches the 90% level – in data set [5] worked out at 385 nM. Moreover, in data set [6], the CC50 at 7 days stood at 2400 nM.
Regarding `CC[C@@H](N)C(=O)Nc1nc(C)c(-c2ccnc(Nc3cccc([N+](=O)[O-])c3)n2)s1` [Compound 16, (2R)-2-Amino-N-{4-methyl-5-[2-(3-nitro-phenylamino)-pyrimidin-4-yl]-thiazol-2-yl}-butyramide], the IC50 turned out to be 390 nM in data set [1]; 53000 nM in data set [2]; 100 nM in data set [3]; 600 nM in data set [4]; 650 nM in data set [7] (setting [8]); 650 nM in data set [7] (setting [9]).
As to `Cc1nc(C)c(-c2ccnc(Nc3ccc(NC(=O)CN4CCCC4)cc3)n2)s1` [Compound 53, N-{4-[4-(2,4-Dimethyl-thiazol-5-yl)-pyrimidin-2-ylamino]-phenyl}-2-pyrrolidin-1-yl-acetamide], in data set [5], the IC50 was 812 nM and the 90% effect level (IC90) was put at 871 nM. For the same molecule, in data set [7] (setting [8]), the IC50 stood at 5300 nM. For the same molecule, the CC50 at 7 days in data set [6] stood at 1600 nM.
